Measured values published in patent US20230233690A1, “ANDROGEN RECEPTOR PROTEIN DEGRADERS” (THE REGENTS OF THE UNIVERSITY OF MICHIGAN, priority 2020, published 2023).

Biological target: T1, AR protein (Homo sapiens, UniProt P10275)
T1 construct: endogenous in cells; host or cells: VCaP
T1 sequence (P10275 1-920): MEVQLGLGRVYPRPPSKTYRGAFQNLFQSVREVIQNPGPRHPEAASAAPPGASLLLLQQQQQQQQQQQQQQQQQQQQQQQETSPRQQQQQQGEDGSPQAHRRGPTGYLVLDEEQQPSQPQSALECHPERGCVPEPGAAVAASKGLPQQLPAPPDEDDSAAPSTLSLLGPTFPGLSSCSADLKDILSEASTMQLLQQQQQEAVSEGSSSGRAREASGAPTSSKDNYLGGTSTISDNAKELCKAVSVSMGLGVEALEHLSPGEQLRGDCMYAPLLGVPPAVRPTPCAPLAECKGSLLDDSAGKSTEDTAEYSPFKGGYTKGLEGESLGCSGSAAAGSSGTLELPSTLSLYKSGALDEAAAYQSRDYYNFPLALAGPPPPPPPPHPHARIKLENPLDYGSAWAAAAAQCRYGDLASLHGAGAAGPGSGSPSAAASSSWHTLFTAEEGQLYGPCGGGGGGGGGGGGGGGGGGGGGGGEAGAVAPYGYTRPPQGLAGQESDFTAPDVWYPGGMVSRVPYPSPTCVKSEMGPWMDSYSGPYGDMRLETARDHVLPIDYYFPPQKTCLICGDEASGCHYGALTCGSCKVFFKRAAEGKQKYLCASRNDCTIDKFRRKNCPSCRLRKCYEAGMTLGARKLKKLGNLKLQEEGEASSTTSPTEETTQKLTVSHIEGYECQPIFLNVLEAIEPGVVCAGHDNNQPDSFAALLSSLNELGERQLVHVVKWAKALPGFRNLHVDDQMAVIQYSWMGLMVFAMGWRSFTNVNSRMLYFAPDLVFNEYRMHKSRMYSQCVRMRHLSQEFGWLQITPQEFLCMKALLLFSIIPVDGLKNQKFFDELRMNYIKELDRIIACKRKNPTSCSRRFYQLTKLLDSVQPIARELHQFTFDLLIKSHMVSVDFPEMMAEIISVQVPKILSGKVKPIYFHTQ
Experiment: Western blotting of AR protein degradation in VCaP cells
Assay type: cell-based
Details: for AR protein degradation VCap 10 nM / AR protein degradation VCap 100 nM: 24 hr treatment
Description: The treated cells were lysed with RIPA buffer. […] GAPDH was used as a loading control.
Bands were quantified with ImageJ software. The relative numbers of each band obtained from normalization with its corresponding GAPDH level were compared with Prism 8 software. The DC50 values were produced from Prism 8, and the DC90 values were calculated with an equation=Bottom+(Top−Bottom)/(1+10^((Log EC50−X)*HillSlope) based on DC50 and Hillslope values.

Compound | AR protein degradation VCap 10 nM | AR protein degradation VCap 100 nM | also measured
N#Cc1ccc(O[C@H]2CC[C@H](Nc3ccc(C(=O)N4CCN(C5CCN(c6ccc7c(c6)C(=O)N(C6CCC(=O)NC6=O)C7=O)CC5)CC4)cc3)CC2)cc1Cl (some centres unmarked) [Cpd. No. 12] | C (>10% degradation but <50% (24 hr treatment)) | A (>90% degradation (24 hr treatment)) | 
N#Cc1ccc(O[C@H]2CC[C@H](Nc3ccc(C(=O)N4CCN(C5CN(c6ccc7c(c6)C(=O)N(C6CCC(=O)NC6=O)C7=O)C5)CC4)cc3)CC2)cc1Cl (some centres unmarked) [Cpd. No. 17, 2-chloro-4-(((1r,4r)-4-((4-(4-(1-(2-(2,6-dioxopiperidin-3-yl)-1,3-dioxoisoindolin-5-yl)azetidin-3-yl)piperazinecarbonyl)phenyl)amino)cyclohexyl)oxy)benzonitrile] | B (>50% degradation but <90% (24 hr treatment)) | B (>50% degradation but <90% (24 hr treatment)) | 
N#Cc1ccc(O[C@H]2CC[C@H](NC(=O)c3ccc(N4CCN(C5CCN(c6ccc7c(c6)C(=O)N(C6CCC(=O)NC6=O)C7=O)CC5)CC4)cc3)CC2)cc1Cl (some centres unmarked) [Cpd. No. 21, N-((1r,4r)-4-(3-chloro-4-cyanophenoxy)cyclohexyl)-4-(4-(1-(2-(2,6-dioxopiperidin-3-yl)-1,3-dioxoisoindolin-5-yl)piperidin-4-yl)piperazin-1-yl)benzamide] | A (>90% degradation (24 hr treatment)) | A (>90% degradation (24 hr treatment)) | 
N#Cc1ccc(O[C@H]2CC[C@H](NC(=O)c3ccc(N4CCN(C5CN(c6ccc7c(c6)C(=O)N(C6CCC(=O)NC6=O)C7=O)C5)CC4)cc3)CC2)cc1Cl (some centres unmarked) [Cpd. No. 22] | A (>90% degradation (24 hr treatment)) | A (>90% degradation (24 hr treatment)) | 
C[C@H]1C[C@@H](NC(=O)c2ccc(N3CCN(CC4CCN(c5ccc6c(c5)C(=O)N(C5CCC(=O)NC5=O)C6=O)CC4)CC3)cc2)CC[C@@H]1Oc1ccc(C#N)c(Cl)c1 (some centres unmarked) [Cpd. No. 23] | A (>90% degradation (24 hr treatment)) | A (>90% degradation (24 hr treatment)) | 
N#Cc1ccc(N[C@H]2CC[C@H](NC(=O)c3ccc(N4CCN(C5CN(c6ccc7c(c6)C(=O)N(C6CCC(=O)NC6=O)C7=O)C5)CC4)cc3)CC2)cc1Cl (some centres unmarked) [Cpd. No. 28, N-((1r,4r)-4-((3-chloro-4-cyanophenyl)amino)cyclohexyl)-4-(4-(1-(2-(2,6-dioxopiperidin-3-yl)-1,3-dioxoisoindolin-5-yl)azetidin-3-yl)piperazin-1-yl)benzamide] | A (>90% degradation (24 hr treatment)) | A (>90% degradation (24 hr treatment)) | 
CN(c1ccc(C#N)c(Cl)c1)[C@H]1CC[C@H](NC(=O)c2ccc(N3CCN(C4CN(c5ccc6c(c5)C(=O)N(C5CCC(=O)NC5=O)C6=O)C4)CC3)cc2)CC1 (some centres unmarked) [Cpd. No. 31, N-((1r,4r)-4-((3-chloro-4-cyanophenyl)(methyl)amino)cyclohexyl)-4-(4-(1-(2-(2,6-dioxopiperidin-3-yl)-1,3-dioxoisoindolin-5-yl)azetidin-3-yl)piperazin-1-yl)benzamide] | A (>90% degradation (24 hr treatment)) | A (>90% degradation (24 hr treatment)) | 
N#Cc1ccc(O[C@H]2CC[C@H](NC(=O)c3ccc(N4CCC5(CC4)CCN(C4CCN(c6ccc7c(c6)C(=O)N(C6CCC(=O)NC6=O)C7=O)CC4)CC5)cc3)CC2)cc1Cl (some centres unmarked) [compound 7] | B (>50% degradation but <90% (24 hr treatment)) | C (>10% degradation but <50% (24 hr treatment)) | 
N#Cc1ccc(O[C@H]2CC[C@H](NC(=O)c3ccc4c(c3)CN(CC3CCN(c5ccc6c(c5)C(=O)N(C5CCC(=O)NC5=O)C6=O)CC3)C4)CC2)cc1Cl (some centres unmarked) [compound 8] |  | A (>90% degradation (24 hr treatment)) | 
N#Cc1ccc(O[C@H]2CC[C@H](NC(=O)c3ccc4c(c3)CCN(CC3CCN(c5ccc6c(c5)C(=O)N(C5CCC(=O)NC5=O)C6=O)CC3)C4)CC2)cc1Cl (some centres unmarked) [compound 9] |  | B (>50% degradation but <90% (24 hr treatment)) | 
N#Cc1ccc(O[C@H]2CC[C@H](Nc3ccc(C(=O)N4CCN(CC5CCN(c6ccc7c(c6)C(=O)N(C6CCC(=O)NC6=O)C7=O)CC5)CC4)cc3)CC2)cc1Cl (some centres unmarked) [compound 13] | C (>10% degradation but <50% (24 hr treatment)) | B (>50% degradation but <90% (24 hr treatment)) | 
CN(c1ccc(C(=O)N2CCN(C3CCN(c4ccc5c(c4)C(=O)N(C4CCC(=O)NC4=O)C5=O)CC3)CC2)cc1)[C@H]1CC[C@H](Oc2ccc(C#N)c(Cl)c2)CC1 (some centres unmarked) [compound 14] |  | C (>10% degradation but <50% (24 hr treatment)) | 
CN(c1ccc(C(=O)N2CCN(CC3CCN(c4ccc5c(c4)C(=O)N(C4CCC(=O)NC4=O)C5=O)CC3)CC2)cc1)[C@H]1CC[C@H](Oc2ccc(C#N)c(Cl)c2)CC1 (some centres unmarked) [compound 15] |  | B (>50% degradation but <90% (24 hr treatment)) | 
C[C@H]1C[C@H](NC(=O)c2ccc(N3CCN(CC4CCN(c5ccc6c(c5)C(=O)N(C5CCC(=O)NC5=O)C6=O)CC4)CC3)cc2)CC[C@H]1Oc1ccc(C#N)c(Cl)c1 (some centres unmarked) [compound 24] | A (>90% degradation (24 hr treatment)) | A (>90% degradation (24 hr treatment)) | 
C[C@H]1C[C@@H](NC(=O)c2ccc(N3CCN(C4CCN(c5ccc6c(c5)C(=O)N(C5CCC(=O)NC5=O)C6=O)CC4)CC3)cc2)CC[C@@H]1Oc1ccc(C#N)c(Cl)c1 (some centres unmarked) [compound 25] | A (>90% degradation (24 hr treatment)) | A (>90% degradation (24 hr treatment)) | 
C[C@H]1C[C@@H](NC(=O)c2ccc(N3CCN(C4CN(c5ccc6c(c5)C(=O)N(C5CCC(=O)NC5=O)C6=O)C4)CC3)cc2)CC[C@@H]1Oc1ccc(C#N)c(Cl)c1 (some centres unmarked) [compound 26] | A (>90% degradation (24 hr treatment)) | A (>90% degradation (24 hr treatment)) | 
N#Cc1ccc(N[C@H]2CC[C@H](NC(=O)c3ccc(N4CCN(CC5CCN(c6ccc7c(c6)C(=O)N(C6CCC(=O)NC6=O)C7=O)CC5)CC4)cc3)CC2)cc1Cl (some centres unmarked) [compound 27] | A (>90% degradation (24 hr treatment)) | A (>90% degradation (24 hr treatment)) | 
CN(c1ccc(C#N)c(Cl)c1)[C@H]1CC[C@H](NC(=O)c2ccc(N3CCN(CC4CCN(c5ccc6c(c5)C(=O)N(C5CCC(=O)NC5=O)C6=O)CC4)CC3)cc2)CC1 (some centres unmarked) [compound 29] | A (>90% degradation (24 hr treatment)) | A (>90% degradation (24 hr treatment)) | 
CN(c1ccc(C#N)c(Cl)c1)[C@H]1CC[C@H](NC(=O)c2ccc(N3CCN(C4CCN(c5ccc6c(c5)C(=O)N(C5CCC(=O)NC5=O)C6=O)CC4)CC3)cc2)CC1 (some centres unmarked) [compound 30] | A (>90% degradation (24 hr treatment)) | A (>90% degradation (24 hr treatment)) | 
CN(c1ccc(C#N)c(Cl)c1)C1CCC(NC(=O)c2ccc(C#CC3CCN(C4CCN(c5ccc6c(c5)C(=O)N(C5CCC(=O)NC5=O)C6=O)CC4)CC3)cc2)CC1 (centres unmarked) [compound 32] | A (>90% degradation (24 hr treatment)) | A (>90% degradation (24 hr treatment)) | 
N#Cc1ccc(O[C@H]2CC[C@H](NC(=O)c3ccc(NCCCCNc4ccc5c(c4)C(=O)N(C4CCC(=O)NC4=O)C5=O)cc3)CC2)cc1Cl (some centres unmarked) [compound 210, N-((1r,4r)-4-(3-chloro-4-cyanophenoxy)cyclohexyl)-4-((4-((2-(2,6-dioxopiperidin-3-yl)-1,3-dioxoisoindolin-5-yl)amino)butyl)amino)benzamide] |  |  | % AR protein degradation in VCaP Cells (0.001 μM): 43%; % AR protein degradation in VCaP Cells (0.01 μM): 70%; % AR protein degradation in VCaP Cells (0.1 μM): 55%; % AR protein degradation in VCaP Cells (1 μM): 38%
N#Cc1ccc(O[C@H]2CC[C@H](NC(=O)c3ccc(NCCCCCNc4ccc5c(c4)C(=O)N(C4CCC(=O)NC4=O)C5=O)cc3)CC2)cc1Cl (some centres unmarked) [compound 211, N-((1r,4r)-4-(3-chloro-4-cyanophenoxy)cyclohexyl)-4-((5-((2-(2,6-dioxopiperidin-3-yl)-1,3-dioxoisoindolin-5-yl)amino)pentyl)amino)benzamide] |  |  | % AR protein degradation in VCaP Cells (0.001 μM): 59%; % AR protein degradation in VCaP Cells (0.01 μM): 82%; % AR protein degradation in VCaP Cells (0.1 μM): 82%; % AR protein degradation in VCaP Cells (1 μM): 79%
